{"source": "patent US7666307B2", "about": "“Particle size reduction of bioactive compounds” (K.U. Leuven Research & Development, priority 2003, dated 2010)", "key": {"[1]": {"experiment": "Dissolution test of loperamide samples, USP 24 paddle method, HPLC", "type": "physicochemical", "conditions": "37 °C, paddle 100 rpm", "method": "Four different samples containing loperamide (commercially available from Janssen Pharmaceutica, Beerse, Belgium) were prepared and their dissolution profiles were measured. 1 g/l of loperamide and 10 g/l of Aerosil 380 (a silicate commercially available from Degussa, Dusseldorf, Germany) were mixed with bi-distilled water in a mortar. An untreated sample was prepared by fast solidification of part of this suspension in a pre-cooled ball that was kept in liquid nitrogen followed by freeze-drying. […]\nDissolution experiments were performed in a SR8 PLUS Hanson dissolution test station (commercially available from Chatsworth, United States) while using the USP 24 method (paddle method, 100 rpm). […] The corresponding concentrations were determined from the calibration curve with HPLC.\nThe HPLC system used for this determination consisted of LiChroGraph® L-7100 HPLC pump, an auto-sampler model L-7200 equipped with a 100 μl loop, a UV detector model L-7400 set at 220 nm, and an Interface D-7000, all from commercially available from Merck-Hitachi (Darmstadt, Germany). UV signals were monitored and peaks were integrated using the D-7000 HSM software. […]"}, "[2]": {"conditions": "cited from earlier work"}}, "data": [{"smiles": "CN(C)C(=O)C(CCN1CCC(O)(c2ccc(Cl)cc2)CC1)(c1ccccc1)c1ccccc1", "note": "[loperamide]", "values": [{"measurement": "dissolution rate versus corresponding untreated sample", "setting": "[1]; magnetic treatment in the presence of a silicate (Aerosil)", "result": "significantly increased"}, {"measurement": "dissolution rate versus corresponding untreated sample", "setting": "[1]; magnetic treatment in the presence of a surfactant (Tween 80)", "result": "significantly increased"}]}, {"smiles": "C#C[C@]1(O)CC[C@H]2[C@@H]3CCC4=Cc5oncc5C[C@]4(C)[C@H]3CC[C@@]21C", "note": "[danazol]", "values": [{"measurement": "size to which 10% of the particles are reduced", "setting": "[2]; dispersion refined by electric field, U.S. Pat. No. 5,503,723", "result": 180, "unit": "nm"}]}, {"smiles": "CCCCNc1ccc(C(=O)OCCN(C)C)cc1", "note": "[tetracaine]", "values": [{"measurement": "average particle diameter", "setting": "[2]; aqueous nanosuspensions, U.S. Pat. No. 5,858,410", "result": 91, "unit": "nm"}]}]}
